Patent US20190256474A1, “N-PHENYL-2-(3-PHENYL-6-OXO-1,6-DIHYDROPYRIDAZIN-1-YL)ACETAMIDE DERIVATIVES FOR TREATING CYSTIC FIBROSIS” (Proteostasis Therapeutics, Inc., priority 2016, published 2019)

Target: T1, ΔF508-CFTR (Homo sapiens, UniProt P13569, DEL508-508)
T1 construct: Primary lung epithelial cells homozygous for the Cystic Fibrosis-causing ΔF508 mutation were differentiated; endogenous in cells; host or cells: primary human bronchial epithelial cells (hBE), ΔF508/ΔF508
Assay: hBE equivalent current (Ieq) assay, CFTR activity
Format: cell-based
Details: relative to a CFTR amplifier at 3 μM, ΔF508 homozygous hBE, 24 h treatment; for Activity 3 μM: compound at 3 μM; for Activity 10 μM: compound at 10 μM
Procedure: Primary lung epithelial cells homozygous for the Cystic Fibrosis-causing ΔF508 mutation were differentiated for a minimum of 4 weeks in an air-liquid interface on Costar 24 well HTS filter plates prior to the equivalent current (Ieq) measurements. Cells were apically mucus-washed for 30 minutes 24 h prior to treatment with compounds. The basolateral media was removed and replaced with media containing the compound of interest diluted to its final concentration from DMSO stocks. Treated cells were incubated at 37° C. and 5% CO2 for 24 hours. At the end of the treatment period, the media was changed to the Ieq experimental solution for 2 hours before the experiment and plates are maintained in a CO2-free incubator during this period. The plates containing the cells were then placed in pre-warmed heating blocks at 36° C.±0.5 for 15 minutes before measurements are taken. The transepithelial voltage (VT) and conductance (GT) were measured using a custom 24 channel current clamp (TECC-24) with 24 well electrode manifold. The Ieq assay measurements were made following additions with standardized time periods:
1. The baseline VT and GT values were measured for approximately 20 minutes.
2. Benzamil was added to block ENaC for 15 minutes.
3. Forskolin plus VX-770 were added to maximally activate ΔF508-CFTR for 27 minutes.
4. Bumetanide was added to inhibit the NaK2Cl cotransporter and shut-off secretion of chloride.
The activity data captured was the area under the curve (AUC) for the traces of the equivalent chloride current. The AUC was collected from the time of the forskolin/VX-770 addition until the inhibition by bumetanide addition. Correction in response to compound treatment was scored as the increase in the AUC for compound-treated samples over that of vehicle-treated samples.
The results are shown below in Table 1. + indicates activity <150% of a CFTR amplifier with compound at concentration shown and amplifier at 3 μM; ++ indicates activity >150% of a CFTR amplifier with compound at concentration shown and amplifier at 3 μM.

T1 sequence (P13569 with tags, fused parts or gaps DEL508-508): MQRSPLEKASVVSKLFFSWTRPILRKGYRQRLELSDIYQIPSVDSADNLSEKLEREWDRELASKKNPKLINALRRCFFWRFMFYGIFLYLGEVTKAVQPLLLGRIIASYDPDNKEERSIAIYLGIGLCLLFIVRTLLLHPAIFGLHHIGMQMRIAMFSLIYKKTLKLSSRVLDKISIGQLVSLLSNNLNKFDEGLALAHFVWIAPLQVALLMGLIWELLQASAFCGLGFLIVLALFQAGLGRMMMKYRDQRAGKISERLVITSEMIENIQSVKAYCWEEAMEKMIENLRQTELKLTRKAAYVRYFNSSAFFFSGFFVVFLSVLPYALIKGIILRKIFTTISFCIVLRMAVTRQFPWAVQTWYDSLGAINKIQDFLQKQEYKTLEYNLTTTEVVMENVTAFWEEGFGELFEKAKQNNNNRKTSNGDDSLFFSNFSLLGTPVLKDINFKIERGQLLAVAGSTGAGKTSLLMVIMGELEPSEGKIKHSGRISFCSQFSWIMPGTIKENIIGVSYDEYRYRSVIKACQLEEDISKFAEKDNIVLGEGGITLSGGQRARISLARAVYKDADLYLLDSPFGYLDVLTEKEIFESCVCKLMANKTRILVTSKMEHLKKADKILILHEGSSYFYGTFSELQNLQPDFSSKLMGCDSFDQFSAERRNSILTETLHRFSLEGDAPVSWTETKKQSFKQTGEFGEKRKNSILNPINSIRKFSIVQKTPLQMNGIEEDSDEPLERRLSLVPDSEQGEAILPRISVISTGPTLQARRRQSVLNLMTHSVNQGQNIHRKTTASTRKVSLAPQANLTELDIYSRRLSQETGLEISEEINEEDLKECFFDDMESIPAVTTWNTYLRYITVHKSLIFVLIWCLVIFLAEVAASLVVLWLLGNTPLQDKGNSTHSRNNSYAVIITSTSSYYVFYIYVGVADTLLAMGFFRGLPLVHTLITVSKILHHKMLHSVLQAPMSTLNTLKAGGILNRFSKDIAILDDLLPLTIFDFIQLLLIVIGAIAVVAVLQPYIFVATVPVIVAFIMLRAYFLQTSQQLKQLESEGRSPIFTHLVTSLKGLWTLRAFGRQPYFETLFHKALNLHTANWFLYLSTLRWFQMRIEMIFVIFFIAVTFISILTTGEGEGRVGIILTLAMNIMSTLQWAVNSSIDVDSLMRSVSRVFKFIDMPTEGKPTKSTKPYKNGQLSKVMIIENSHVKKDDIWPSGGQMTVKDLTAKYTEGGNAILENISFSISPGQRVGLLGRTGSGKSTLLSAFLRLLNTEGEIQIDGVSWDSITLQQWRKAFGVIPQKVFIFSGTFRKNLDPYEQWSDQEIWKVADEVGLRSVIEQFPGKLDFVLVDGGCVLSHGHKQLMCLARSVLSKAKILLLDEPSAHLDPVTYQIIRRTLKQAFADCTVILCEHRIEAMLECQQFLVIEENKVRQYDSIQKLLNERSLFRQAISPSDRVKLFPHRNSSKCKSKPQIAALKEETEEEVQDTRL

COc1cccc(-c2cc(Cl)c(=O)n(C(C)C(=O)Nc3cc(F)cc(F)c3)n2)c1 (stereo not drawn) [Compound 22, 2-(5-Chloro-3-(3-methoxyphenyl)-6-oxopyridazin-1(6H)-yl)-N-(3,5-difluorophenyl)propanamide]
Activity 3 μM: + (activity <150% of a CFTR amplifier with compound at concentration shown and amplifier at 3 μM)
Activity 10 μM: + (activity <150% of a CFTR amplifier with compound at concentration shown and amplifier at 3 μM)

COc1cccc(-c2nn(C(C)C(=O)Nc3cc(F)cc(F)c3)c(=O)cc2Cl)c1 (stereo not drawn) [Compound 23, 2-(4-Chloro-3-(3-methoxyphenyl)-6-oxopyridazin-1(6H)-yl)-N-(3,5-difluorophenyl)propanamide]
Activity 10 μM: + (activity <150% of a CFTR amplifier with compound at concentration shown and amplifier at 3 μM)

COc1cccc(-c2nn(C(C)C(=O)Nc3cc(F)cc(F)c3)c(=O)cc2-c2ccccc2)c1 (stereo not drawn) [Compound 24, N-(3,5-Difluorophenyl)-2-[3-(3-methoxyphenyl)-6-oxo-4-phenyl-1,6-dihydropyridazin-1-yl]propanamide]
Activity 3 μM: ++ (activity >150% of a CFTR amplifier with compound at concentration shown and amplifier at 3 μM)
Activity 10 μM: ++ (activity >150% of a CFTR amplifier with compound at concentration shown and amplifier at 3 μM)

COc1cccc(-c2cc(-c3ccccc3)c(=O)n(C(C)C(=O)Nc3cc(F)cc(F)c3)n2)c1 (stereo not drawn) [Compound 25, N-(3,5-Difluorophenyl)-2-(3-(3-methoxyphenyl)-6-oxo-5-phenylpyridazin-1(6H)-yl)propanamide]
Activity 10 μM: + (activity <150% of a CFTR amplifier with compound at concentration shown and amplifier at 3 μM)

COc1cccc(-c2ccc(=O)n(C(C)C(=O)Nc3cc(O)c(C(C)(C)C)cc3C(C)(C)C)n2)c1 (stereo not drawn) [Compound 26, N-(2,4-Di-tert-butyl-5-hydroxyphenyl)-2-[3-(3-methoxyphenyl)-6-oxo-1,6-dihydropyridazin-1-yl]propanamide]
Activity 3 μM: + (activity <150% of a CFTR amplifier with compound at concentration shown and amplifier at 3 μM)
Activity 10 μM: + (activity <150% of a CFTR amplifier with compound at concentration shown and amplifier at 3 μM)

COc1cccc(-c2ccc(=O)n(C(C)C(=O)Nc3ccc(Cl)c(Cl)c3)n2)c1 (stereo not drawn) [Compound 27, N-(3,4-Dichlorophenyl)-2-[3-(3-methoxyphenyl)-6-oxo-1,6-dihydropyridazin-1-yl]propanamide]
Activity 3 μM: ++ (activity >150% of a CFTR amplifier with compound at concentration shown and amplifier at 3 μM)
Activity 10 μM: ++ (activity >150% of a CFTR amplifier with compound at concentration shown and amplifier at 3 μM)

CC(C(=O)Nc1ccc(C(F)(F)F)cc1)n1nc(-c2ccccc2)ccc1=O (stereo not drawn) [Compound 28, 2-(6-oxo-3-phenyl-1,6-dihydropyridazin-1-yl)-N-[4-(trifluoromethyl)phenyl]propanamide]
Activity 3 μM: ++ (activity >150% of a CFTR amplifier with compound at concentration shown and amplifier at 3 μM)
Activity 10 μM: ++ (activity >150% of a CFTR amplifier with compound at concentration shown and amplifier at 3 μM)

CC(C(=O)Nc1ccc(C(F)(F)F)cc1)n1nc(-c2ccccc2Cl)ccc1=O (stereo not drawn) [Compound 29, 2-[3-(2-Chlorophenyl)-6-oxo-1,6-dihydropyridazin-1-yl]-N-[4-(trifluoromethyl)phenyl]propanamide]
Activity 3 μM: + (activity <150% of a CFTR amplifier with compound at concentration shown and amplifier at 3 μM)
Activity 10 μM: + (activity <150% of a CFTR amplifier with compound at concentration shown and amplifier at 3 μM)

CC(C(=O)Nc1ccc(C(F)(F)F)cc1)n1nc(-c2cccc(Cl)c2)ccc1=O (stereo not drawn) [Compound 30, 2-[3-(3-Chlorophenyl)-6-oxo-1,6-dihydropyridazin-1-yl]-N-[4-(trifluoromethyl)phenyl]propanamide]
Activity 3 μM: ++ (activity >150% of a CFTR amplifier with compound at concentration shown and amplifier at 3 μM)
Activity 10 μM: ++ (activity >150% of a CFTR amplifier with compound at concentration shown and amplifier at 3 μM)

CC(C(=O)Nc1ccc(C(F)(F)F)cc1)n1nc(-c2ccc(Cl)cc2)ccc1=O (stereo not drawn) [Compound 31, 2-[3-(4-Chlorophenyl)-6-oxo-1,6-dihydropyridazin-1-yl]-N-[4-(trifluoromethyl)phenyl]propanamide]
Activity 3 μM: + (activity <150% of a CFTR amplifier with compound at concentration shown and amplifier at 3 μM)
Activity 10 μM: + (activity <150% of a CFTR amplifier with compound at concentration shown and amplifier at 3 μM)

CC(C(=O)Nc1ccc(C(F)(F)F)cc1)n1nc(-c2ccccc2C(F)(F)F)ccc1=O (stereo not drawn) [Compound 32, 2-[6-Oxo-3-[2-(trifluoromethyl)phenyl]-1,6-dihydropyridazin-1-yl]-N-[4-(trifluoromethyl)phenyl]propanamide]
Activity 3 μM: + (activity <150% of a CFTR amplifier with compound at concentration shown and amplifier at 3 μM)
Activity 10 μM: + (activity <150% of a CFTR amplifier with compound at concentration shown and amplifier at 3 μM)

CC(C(=O)Nc1ccc(C(F)(F)F)cc1)n1nc(-c2cccc(C(F)(F)F)c2)ccc1=O (stereo not drawn) [Compound 33, 2-[6-Oxo-3-[3-(trifluoromethyl)phenyl]-1,6-dihydropyridazin-1-yl]-N-[4-(trifluoromethyl)phenyl]propanamide]
Activity 3 μM: ++ (activity >150% of a CFTR amplifier with compound at concentration shown and amplifier at 3 μM)
Activity 10 μM: ++ (activity >150% of a CFTR amplifier with compound at concentration shown and amplifier at 3 μM)

CC(C(=O)Nc1ccc(C(F)(F)F)cc1)n1nc(-c2ccc(C(F)(F)F)cc2)ccc1=O (stereo not drawn) [Compound 34, 2-[6-Oxo-3-[4-(trifluoromethyl)phenyl]-1,6-dihydropyridazin-1-yl]-N-[4-(trifluoromethyl)phenyl]propanamide]
Activity 3 μM: + (activity <150% of a CFTR amplifier with compound at concentration shown and amplifier at 3 μM)
Activity 10 μM: + (activity <150% of a CFTR amplifier with compound at concentration shown and amplifier at 3 μM)

CC(C(=O)Nc1ccc(C(F)(F)F)cc1)n1nc(-c2ccccc2C#N)ccc1=O (stereo not drawn) [Compound 35, 2-[3-(2-Cyanophenyl)-6-oxo-1,6-dihydropyridazin-1-yl]-N-[4-(trifluoromethyl)phenyl]propanamide]
Activity 3 μM: + (activity <150% of a CFTR amplifier with compound at concentration shown and amplifier at 3 μM)
Activity 10 μM: + (activity <150% of a CFTR amplifier with compound at concentration shown and amplifier at 3 μM)

CC(C(=O)Nc1ccc(C(F)(F)F)cc1)n1nc(-c2cccc(C#N)c2)ccc1=O (stereo not drawn) [Compound 36, 2-[3-(3-Cyanophenyl)-6-oxo-1,6-dihydropyridazin-1-yl]-N-[4-(trifluoromethyl)phenyl]propanamide]
Activity 3 μM: ++ (activity >150% of a CFTR amplifier with compound at concentration shown and amplifier at 3 μM)
Activity 10 μM: ++ (activity >150% of a CFTR amplifier with compound at concentration shown and amplifier at 3 μM)

CC(C(=O)Nc1ccc(C(F)(F)F)cc1)n1nc(-c2ccc(C#N)cc2)ccc1=O (stereo not drawn) [Compound 37, 2-[3-(4-Cyanophenyl)-6-oxo-1,6-dihydropyridazin-1-yl]-N-[4-(trifluoromethyl)phenyl]propanamide]
Activity 3 μM: + (activity <150% of a CFTR amplifier with compound at concentration shown and amplifier at 3 μM)
Activity 10 μM: + (activity <150% of a CFTR amplifier with compound at concentration shown and amplifier at 3 μM)

CCC(C(=O)Nc1ccc(C(F)(F)F)cc1)n1nc(-c2cccc(OC)c2)ccc1=O (stereo not drawn) [Compound 38, 2-[3-(3-Methoxyphenyl)-6-oxo-1,6-dihydropyridazin-1-yl]-N-[4-(trifluoromethyl)phenyl]butanamide]
Activity 3 μM: ++ (activity >150% of a CFTR amplifier with compound at concentration shown and amplifier at 3 μM)
Activity 10 μM: ++ (activity >150% of a CFTR amplifier with compound at concentration shown and amplifier at 3 μM)

COc1cccc(-c2ccc(=O)n(C(C(=O)Nc3ccc(C(F)(F)F)cc3)C3CC3)n2)c1 (stereo not drawn) [Compound 39, 2-Cyclopropyl-2-(3-(3-methoxyphenyl)-6-oxopyridazin-1(6H)-yl)-N-(4-(trifluoromethyl)phenyl)acetamide]
Activity 3 μM: ++ (activity >150% of a CFTR amplifier with compound at concentration shown and amplifier at 3 μM)
Activity 10 μM: ++ (activity >150% of a CFTR amplifier with compound at concentration shown and amplifier at 3 μM)

COc1cccc(-c2ccc(=O)n(C(C(=O)Nc3ccc(C(F)(F)F)cc3)c3ccccc3)n2)c1 (stereo not drawn) [Compound 40, 2-(3-(3-Methoxyphenyl)-6-oxopyridazin-1(6H)-yl)-2-phenyl-N-(4-(trifluoromethyl)phenyl)acetamide]
Activity 3 μM: ++ (activity >150% of a CFTR amplifier with compound at concentration shown and amplifier at 3 μM)
Activity 10 μM: + (activity <150% of a CFTR amplifier with compound at concentration shown and amplifier at 3 μM)
